These results are taken from patent US10570129B2 (Zoetis Services LLC, priority 2015, dated 2020).

Assay [1] deals with Haemonchus contortus L3. Kind of assay: microbe, parasite or virus in culture. The assay is classed as cell-based. The conditions noted are these: Haemonchus contortus, 96 h, read-out: HcL3 Minimal Effective Concentration (MEC).
Assay [2] has as its system D. immitis microfilariae. In words: Dirofilaria immitis, microfilariae (DiMF) in vitro motility assay. The class given is cell-based. The settings on record: Dirofilaria immitis, 72 h, read-out: DiMF minimally effective dose (MEC).

Structures are written as SMILES.

For the compound `N#Cc1ccc(/C=C/CN2CCc3c(c4ccc(Cl)cc4n3C(=O)NCc3ccnc(Cl)c3)C2)cc1F` [Example 208, (E)-7-chloro-N-((2-chloropyridin-4-yl)methyl)-2-(3-(4-cyano-3-fluorophenyl)allyl)-1,2,3,4-tetrahydro-5H-pyrido[4,3-b]indole-5-carboxamide], the minimal effective concentration in assay [1] is 1.8 µM; in assay [2], above 100 µM.
Consider `O=C(NCc1ccnc(Cl)c1)n1c2c(c3ccc(Cl)cc31)CN(C/C=C/c1ccc(F)cc1F)CC2` [Example 209, (E)-7-chloro-N-((2-chloropyridin-4-yl)methyl)-2-(3-(2,4-difluorophenyl)-allyl)-1,2,3,4-tetrahydro-5H-pyrido[4,3-b]indole-5-carboxamide], for which the minimal effective concentration in assay [1] was above 100 µM; in assay [2] it was 33 µM.
Consider `O=C(NCc1ccnc(Cl)c1)n1c2c(c3ccc(Cl)cc31)CN(C/C=C/c1ccc(F)c(Cl)c1)CC2` [Example 210, (E)-7-chloro-2-(3-(3-chloro-4-fluorophenyl)allyl)-N-((2-chloropyridin-4-yl)methyl)-1,2,3,4-tetrahydro-5H-pyrido[4,3-b]indole-5-carboxamide], for which the figures for the minimal effective concentration in assay [1] and in assay [2] were 3.3 µM and 10 µM, respectively.
For `N#Cc1ccc(/C=C/CN2CCc3c(c4ccc(Cl)cc4n3C(=O)NCc3ccnc(Cl)c3)C2)cc1` [Example 212, (E)-7-chloro-N-((2-chloropyridin-4-yl)methyl)-2-(3-(4-cyanophenyl)allyl)-1,2,3,4-tetrahydro-5H-pyrido[4,3-b]indole-5-carboxamide], in that order: 1 µM and above 100 µM.
For `O=C(NCc1ccnc(Cl)c1)n1c2c(c3ccc(Cl)cc31)CN(C/C=C/c1ccc(Cl)cc1)CC2` [Example 213, (E)-7-chloro-2-(3-(4-chlorophenyl)allyl)-N-((2-chloropyridin-4-yl)methyl)-1,2,3,4-tetrahydro-5H-pyrido[4,3-b]indole-5-carboxamide], in that order: 0.3 µM and 3.3 µM.
For `O=C(NCc1ccnc(Cl)c1)n1c2c(c3c(Cl)cccc31)CN(C/C=C/c1ccc(Cl)cc1)CC2` [Example 214, (E)-9-chloro-2-(3-(4-chlorophenyl)allyl)-N-((2-chloropyridin-4-yl)methyl)-1,2,3,4-tetrahydro-5H-pyrido[4,3-b]indole-5-carboxamide], in that order: 0.5 µM and 18.2 µM.
For the compound `O=C(NCc1ccnc(Cl)c1)n1c2c(c3ccc(Cl)cc31)CN(C/C=C/c1ccc(Cl)c(Cl)c1)CC2` [Example 215, (E)-7-chloro-N-((2-chloropyridin-4-yl)methyl)-2-(3-(3,4-dichlorophenyl)allyl)-1,2,3,4-tetrahydro-5H-pyrido[4,3-b]indole-5-carboxamide], the minimal effective concentration in assay [1] amounted to 0.5 µM; in assay [2] it was 10 µM.
In the same order, the values of `O=C(NCc1ccnc(Cl)c1)n1c2c(c3c(Cl)cccc31)CN(C/C=C/c1ccc(Cl)c(Cl)c1)CC2` [Example 216, (E)-9-chloro-N-((2-chloropyridin-4-yl)methyl)-2-(3-(3,4-dichlorophenyl)allyl)-1,2,3,4-tetrahydro-5H-pyrido[4,3-b]indole-5-carboxamide] are 1 µM and 18.2 µM.
Regarding `O=C(NCc1ccnc(Cl)c1)n1c2c(c3ccc(Cl)cc31)CN(C/C=C/c1ccc(F)cc1)CC2` [Example 217, (E)-7-chloro-N-((2-chloropyridin-4-yl)methyl)-2-(3-(4-fluorophenyl)allyl)-1,2,3,4-tetrahydro-5H-pyrido[4,3-b]indole-5-carboxamide], the minimal effective concentration in assay [1] stood at 1.8 µM; in assay [2], 3.3 µM.
In the same order, the values of `O=C(NCc1ccnc(Cl)c1)n1c2c(c3c(Cl)cccc31)CN(C/C=C/c1ccc(F)cc1)CC2` [Example 218, (E)-9-chloro-N-((2-chloropyridin-4-yl)methyl)-2-(3-(4-fluorophenyl)allyl)-1,2,3,4-tetrahydro-5H-pyrido[4,3-b]indole-5-carboxamide] are 1 µM and 10 µM.
For `COc1ccc(/C=C/CN2CCc3c(c4ccc(Cl)cc4n3C(=O)NCc3ccnc(Cl)c3)C2)cc1` [Example 219, (E)-7-chloro-N-((2-chloropyridin-4-yl)methyl)-2-(3-(4-methoxyphenyl)allyl)-1,2,3,4-tetrahydro-5H-pyrido[4,3-b]indole-5-carboxamide], in that order: 0.5 µM and 3.3 µM.
For the compound `COc1ccc(/C=C/CN2CCc3c(c4c(Cl)cccc4n3C(=O)NCc3ccnc(Cl)c3)C2)cc1` [Example 220, (E)-9-chloro-N-((2-chloropyridin-4-yl)methyl)-2-(3-(4-methoxyphenyl)allyl)-1,2,3,4-tetrahydro-5H-pyrido[4,3-b]indole-5-carboxamide], the minimal effective concentration in assay [1] is 3.3 µM; in assay [2], 10 µM.
`O=C(NCc1ccnc(Cl)c1)n1c2c(c3ccc(Cl)cc31)CN(C/C=C/c1ccc(OC(F)(F)F)cc1)CC2` [Example 221, (E)-7-chloro-N-((2-chloropyridin-4-yl)methyl)-2-(3-(4-(trifluoromethoxy)-phenyl)allyl)-1,2,3,4-tetrahydro-5H-pyrido[4,3-b]indole-5-carboxamide]: the minimal effective concentration was above 100 µM in assay [1] and 3.3 µM in assay [2].
For the compound `O=C(NCc1ccnc(Cl)c1)n1c2c(c3c(Cl)cccc31)CN(C/C=C/c1ccc(OC(F)(F)F)cc1)CC2` [Example 222, (E)-9-chloro-N-((2-chloropyridin-4-yl)methyl)-2-(3-(4-(trifluoromethoxy)-phenyl)allyl)-1,2,3,4-tetrahydro-5H-pyrido[4,3-b]indole-5-carboxamide], the minimal effective concentration in assay [1] was above 100 µM; in assay [2], 10 µM.
In the case of `O=C(NCc1ccnc(Cl)c1)n1c2c(c3ccc(Cl)cc31)CN(C/C=C/c1ccc(C(F)(F)F)cc1)CC2` [Example 223, (E)-7-chloro-N-((2-chloropyridin-4-yl)methyl)-2-(3-(4-(trifluoromethyl)-phenyl)allyl)-1,2,3,4-tetrahydro-5H-pyrido[4,3-b]indole-5-carboxamide], the minimal effective concentration turned out to be 10 µM in assay [1] and 3.3 µM in assay [2].
Consider `O=C(NCc1ccnc(F)c1)n1c2c(c3ccc(Cl)cc31)CN(C/C=C/c1ccc(Cl)c(F)c1)CC2` [Example 224, (E)-7-chloro-2-(3-(4-chloro-3-fluorophenyl)allyl)-N-((2-fluoropyridin-4-yl)methyl)-1,2,3,4-tetrahydro-5H-pyrido[4,3-b]indole-5-carboxamide], for which the minimal effective concentration in assay [1] is 1.8 µM; in assay [2], 3.3 µM.
With `O=C(NCc1ccnc(F)c1)n1c2c(c3ccc(Cl)cc31)CN(C/C=C/c1ccc(F)cc1F)CC2` [Example 226, (E)-7-chloro-2-(3-(2,4-difluorophenyl)allyl)-N-((2-fluoropyridin-4-yl)methyl)-1,2,3,4-tetrahydro-5H-pyrido[4,3-b]indole-5-carboxamide], the minimal effective concentration in assay [1] was above 100 µM; in assay [2], 1.8 µM.
Regarding `O=C(NCc1ccnc(F)c1)n1c2c(c3ccc(Cl)cc31)CN(C/C=C/c1ccc(F)c(Cl)c1)CC2` [Example 227, (E)-7-chloro-2-(3-(3-chloro-4-fluorophenyl)allyl)-N-((2-fluoropyridin-4-yl)methyl)-1,2,3,4-tetrahydro-5H-pyrido[4,3-b]indole-5-carboxamide], the minimal effective concentration came out at 5.7 µM in assay [1] and 1.8 µM in assay [2].
In the same order, the values of `O=C(NCc1cnc(Cl)s1)n1c2c(c3c(Cl)cccc31)CN(C/C=C/c1ccc(Cl)cc1)CC2` [Example 231, (E)-9-chloro-2-(3-(4-chlorophenyl)allyl)-N-((2-chlorothiazol-5-yl)methyl)-1,2,3,4-tetrahydro-5H-pyrido[4,3-b]indole-5-carboxamide] are 3.3 µM and 13.5 µM.
In the case of `O=C(NCc1ccnc(Cl)c1)n1c2c(c3cc(Cl)ccc31)CN(C/C=C/c1ccc(Cl)c(F)c1)CC2` [Example 232, (E)-8-chloro-2-(3-(4-chloro-3-fluorophenyl)allyl)-N-((2-chloropyridin-4-yl)methyl)-1,2,3,4-tetrahydro-5H-pyrido[4,3-b]indole-5-carboxamide], the figures for the minimal effective concentration in assay [1] and in assay [2] were 1 µM and 10 µM, respectively.
For `O=C(NCc1ccnc(Cl)c1)n1c2c(c3cc(Cl)ccc31)CN(C/C=C/c1ccc(Cl)cc1F)CC2` [Example 233, (E)-8-chloro-2-(3-(4-chloro-2-fluorophenyl)allyl)-N-((2-chloropyridin-4-yl)methyl)-1,2,3,4-tetrahydro-5H-pyrido[4,3-b]indole-5-carboxamide], in that order: 0.01 µM and 1.8 µM.
On to `N#Cc1cc(/C=C/CN2CCc3c(c4cc(Cl)ccc4n3C(=O)NCc3ccnc(Cl)c3)C2)ccc1F` [Example 234, (E)-8-chloro-N-((2-chloropyridin-4-yl)methyl)-2-(3-(3-cyano-4-fluorophenyl)allyl)-1,2,3,4-tetrahydro-5H-pyrido[4,3-b]indole-5-carboxamide], for which the figures for the minimal effective concentration in assay [1] and in assay [2] were 0.1 µM and 3.3 µM, respectively.
In the same order, the values of `N#Cc1ccc(/C=C/CN2CCc3c(c4cc(Cl)ccc4n3C(=O)NCc3ccnc(Cl)c3)C2)cc1F` [Example 235, (E)-8-chloro-N-((2-chloropyridin-4-yl)methyl)-2-(3-(4-cyano-3-fluorophenyl)allyl)-1,2,3,4-tetrahydro-5H-pyrido[4,3-b]indole-5-carboxamide] are 0.1 µM and above 100 µM.
With `O=C(NCc1ccnc(Cl)c1)n1c2c(c3cc(Cl)ccc31)CN(C/C=C/c1ccc(F)cc1Cl)CC2` [Example 237, (E)-8-chloro-2-(3-(2-chloro-4-fluorophenyl)allyl)-N-((2-chloropyridin-4-yl)methyl)-1,2,3,4-tetrahydro-5H-pyrido[4,3-b]indole-5-carboxamide], the minimal effective concentration in assay [1] was 0.03 µM; in assay [2] it was 1.8 µM.
